Data on 7 molecules can be found in PubChem BioAssay (NCI).

Test systems include IGROV1 ovarian; COLO 205 colon; SK-MEL-28 melanoma; UACC-257 melanoma; NCI-H522 lung; SF-295 CNS; LOX IMVI melanoma; NCI-H226 lung; 786-0 renal; SF-539 CNS; MCF7 breast; SNB-75 CNS; MDA-MB-435; OVCAR-3 ovarian; M14 melanoma; SK-MEL-2 melanoma; SR leukemia; UO-31 renal; RPMI-8226 leukemia; CAKI-1 renal.
Common to all, as to test: DTP human tumour cell line panel, 48 h

One may read the TGI as the concentration at which net growth stops. Lower therefore signals greater sensitivity of the cells.

Structures are written as SMILES.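 Five concentrations, 48 hours, 96-well plates. TGI denotes the concentration required for complete inhibition of growth.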 Some results are limits rather than exact numbers.

For the molecule `CC1C(=NO)C(C)C(c2ccccc2)N(N=O)C1c1ccccc1` (stereo unspecified), the total growth inhibition concentration (TGI) with IGROV1 ovarian worked out at 52.9 µM; in the experiment on COLO 205 colon it was 31.5 µM; with SK-MEL-28 melanoma, 32.3 µM; in the experiment on UACC-257 melanoma, 54.8 µM; in the experiment with NCI-H522 lung, 34.5 µM; in the experiment with SF-295 CNS, 29.5 µM. Also, the TGI in the experiment with LOX IMVI melanoma is 29.3 µM; in the experiment on NCI-H226 lung, 55.2 µM; in the experiment on 786-0 renal it was 42.7 µM; in the experiment with SF-539 CNS it was 26.5 µM; in the experiment with MCF7 breast it was greater than 100 µM; in the experiment with SNB-75 CNS it was 82 µM. The total growth inhibition concentration (TGI) in the experiment with MDA-MB-435 is 44.8 µM; in the experiment on OVCAR-3 ovarian, 65.7 µM; in the experiment with M14 melanoma, 29.5 µM; in the experiment on SK-MEL-2 melanoma, 39.5 µM; with SR leukemia it was 45.7 µM; in the experiment with UO-31 renal, 39.1 µM.
As to `COc1ccc2c(c1)CCN=C2Cc1ccccc1CCCl`, the total growth inhibition concentration (TGI) with IGROV1 ovarian was greater than 100 µM; with COLO 205 colon it was 40 µM; in the experiment on SK-MEL-28 melanoma it was greater than 100 µM; in the experiment with UACC-257 melanoma, 88.9 µM; in the experiment with NCI-H522 lung it was 58.4 µM; in the experiment with SF-295 CNS, greater than 100 µM. Moreover, the TGI with NCI-H226 lung was 83.5 µM; in the experiment with 786-0 renal, greater than 100 µM; in the experiment with SF-539 CNS, 45.8 µM; with MCF7 breast it was greater than 100 µM; in the experiment with SNB-75 CNS, greater than 100 µM; with MDA-MB-435, 45.4 µM. In addition, the total growth inhibition concentration (TGI) is greater than 100 µM in the experiment on OVCAR-3 ovarian; 46.1 µM in the experiment with M14 melanoma; 46.7 µM in the experiment on RPMI-8226 leukemia; 63.2 µM with CAKI-1 renal; 58.3 µM in the experiment with SK-MEL-2 melanoma; greater than 100 µM in the experiment on SR leukemia. The TGI with UO-31 renal came out at 43.9 µM.
As for `Cc1[nH]n(C2=NCCN2)c(=O)c1C`, the concentration for total growth inhibition (TGI) in the experiment with IGROV1 ovarian, in the experiment on COLO 205 colon, in the experiment with UACC-257 melanoma, with NCI-H522 lung, with SF-295 CNS and with LOX IMVI melanoma was greater than 100 µM each time. Also, the TGI with NCI-H226 lung, with 786-0 renal, in the experiment with SF-539 CNS, with MCF7 breast, with SNB-75 CNS and in the experiment on MDA-MB-435 was greater than 100 µM in each case. Besides, the TGI in the experiment on OVCAR-3 ovarian, with M14 melanoma, in the experiment on RPMI-8226 leukemia, in the experiment on CAKI-1 renal, in the experiment with SK-MEL-2 melanoma and with SR leukemia was greater than 100 µM throughout. Further, in the experiment on UO-31 renal, the total growth inhibition concentration (TGI) was greater than 100 µM.
On to `CC(=O)OCC1OC(n2c(C#N)cc(=O)[nH]c2=O)CC1OC(C)=O` (stereo unspecified), for which the TGI in the experiment with IGROV1 ovarian, with COLO 205 colon, in the experiment with SK-MEL-28 melanoma, in the experiment with UACC-257 melanoma, in the experiment with NCI-H522 lung and in the experiment with SF-295 CNS was greater than 100 µM each time. The concentration for total growth inhibition (TGI) with LOX IMVI melanoma, in the experiment on NCI-H226 lung, in the experiment on 786-0 renal, in the experiment on SF-539 CNS, in the experiment with MCF7 breast and in the experiment with SNB-75 CNS was greater than 100 µM in each case. Moreover, the concentration for total growth inhibition (TGI) with MDA-MB-435, in the experiment on OVCAR-3 ovarian, in the experiment on M14 melanoma, in the experiment on CAKI-1 renal, with SK-MEL-2 melanoma and in the experiment on SR leukemia was greater than 100 µM each time. For the same molecule, in the experiment on UO-31 renal, the TGI was greater than 100 µM.
In the case of `NC(=O)NC(=O)CCC(NS(=O)(=O)c1ccccc1)C(=O)NC(N)=O` (stereo unspecified), the TGI in the experiment with IGROV1 ovarian, in the experiment on COLO 205 colon, in the experiment with SK-MEL-28 melanoma, in the experiment on UACC-257 melanoma, in the experiment on NCI-H522 lung and in the experiment with SF-295 CNS was greater than 100 µM in each case. In addition, the TGI with LOX IMVI melanoma, in the experiment on NCI-H226 lung, in the experiment on 786-0 renal, in the experiment on SF-539 CNS, in the experiment on MCF7 breast and with SNB-75 CNS was greater than 100 µM throughout. Further, the total growth inhibition concentration (TGI) in the experiment on MDA-MB-435, with OVCAR-3 ovarian, in the experiment with M14 melanoma, in the experiment with CAKI-1 renal, with SK-MEL-2 melanoma and with SR leukemia was greater than 100 µM in each case. This molecule also registered a concentration for total growth inhibition (TGI) in the experiment with UO-31 renal greater than 100 µM.
Turning to `COc1ccc(C2=Nn3c(nc4sc(C)c(C)c4c3=O)SC2)cc1`, the TGI in the experiment with IGROV1 ovarian, with COLO 205 colon, with SK-MEL-28 melanoma, in the experiment on UACC-257 melanoma, in the experiment with NCI-H522 lung and in the experiment on SF-295 CNS was greater than 100 µM each time. Besides, the TGI in the experiment with LOX IMVI melanoma, in the experiment with NCI-H226 lung, in the experiment on 786-0 renal, in the experiment with SF-539 CNS, with MCF7 breast and with SNB-75 CNS was greater than 100 µM each time. The TGI with MDA-MB-435, in the experiment with OVCAR-3 ovarian, in the experiment on RPMI-8226 leukemia, with CAKI-1 renal, in the experiment on SR leukemia and in the experiment with UO-31 renal was greater than 100 µM in each case.
With `CC(C)/C(Cl)=N/OC(=O)Nc1cccc(C(F)(F)F)c1`, the total growth inhibition concentration (TGI) came to 26.6 µM in the experiment with IGROV1 ovarian; 3.46 µM with COLO 205 colon; 10.9 µM with SK-MEL-28 melanoma; 29.5 µM in the experiment on UACC-257 melanoma; 0.951 µM with NCI-H522 lung; 33 µM in the experiment on SF-295 CNS. Moreover, the TGI with LOX IMVI melanoma came out at 6.43 µM; in the experiment with NCI-H226 lung, 30.7 µM; in the experiment with 786-0 renal, 7.52 µM; in the experiment with MCF7 breast, 16.5 µM; in the experiment with SNB-75 CNS, 21.2 µM; in the experiment with MDA-MB-435, 26.9 µM. The concentration for total growth inhibition (TGI) is 8.12 µM with OVCAR-3 ovarian; 13.3 µM in the experiment on M14 melanoma; 3.69 µM with RPMI-8226 leukemia; 3.14 µM with CAKI-1 renal; 32.5 µM in the experiment on SK-MEL-2 melanoma; 3.12 µM in the experiment on SR leukemia. Besides, the TGI in the experiment with UO-31 renal is 22.9 µM.
